“Also recorded” adds a separate entry of the source.
How the values were obtained:
β-catenin/CBP = β-catenin/CBP (Homo sapiens, UniProt Q92793); conditions: CBP arm of the Wnt pathway; cited from earlier work
3T3-L1 preadipocytes = test: Differentiation of 3T3-L1 preadipocytes; type: cell-based
Excerpt: (§1) From our chemogenomic studies with the small molecule inhibitor of the β-catenin/CBP interaction and additional gene expression profiling, we have developed a model that describes how differential coactivator usage in Wnt signaling controls proliferation vs. differentiation. The critical feature of this model is that the CBP arm (FIG. 2, left side) of the pathway is essential for proliferation without differentiation, for example in cancer or stem cells, whereas the p300 arm (FIG. 2, right side) is critical for differentiation, with limited proliferation.

C2C12 myoblasts = test: Differentiation of C2C12 myoblasts; type: cell-based; conditions: 10 μM ICG-001, compared to differentiation medium or growth medium (FIGS. 3, 4)
Protocol: FIG. 4 illustrates that differentiation of C2C12 myeloblasts is induced by 10 μM ICG-001 as compared to differentiation medium.
as §1

cancer cells = conditions: cited from earlier work

Sequence of β-catenin/CBP (Q92793 whole entry): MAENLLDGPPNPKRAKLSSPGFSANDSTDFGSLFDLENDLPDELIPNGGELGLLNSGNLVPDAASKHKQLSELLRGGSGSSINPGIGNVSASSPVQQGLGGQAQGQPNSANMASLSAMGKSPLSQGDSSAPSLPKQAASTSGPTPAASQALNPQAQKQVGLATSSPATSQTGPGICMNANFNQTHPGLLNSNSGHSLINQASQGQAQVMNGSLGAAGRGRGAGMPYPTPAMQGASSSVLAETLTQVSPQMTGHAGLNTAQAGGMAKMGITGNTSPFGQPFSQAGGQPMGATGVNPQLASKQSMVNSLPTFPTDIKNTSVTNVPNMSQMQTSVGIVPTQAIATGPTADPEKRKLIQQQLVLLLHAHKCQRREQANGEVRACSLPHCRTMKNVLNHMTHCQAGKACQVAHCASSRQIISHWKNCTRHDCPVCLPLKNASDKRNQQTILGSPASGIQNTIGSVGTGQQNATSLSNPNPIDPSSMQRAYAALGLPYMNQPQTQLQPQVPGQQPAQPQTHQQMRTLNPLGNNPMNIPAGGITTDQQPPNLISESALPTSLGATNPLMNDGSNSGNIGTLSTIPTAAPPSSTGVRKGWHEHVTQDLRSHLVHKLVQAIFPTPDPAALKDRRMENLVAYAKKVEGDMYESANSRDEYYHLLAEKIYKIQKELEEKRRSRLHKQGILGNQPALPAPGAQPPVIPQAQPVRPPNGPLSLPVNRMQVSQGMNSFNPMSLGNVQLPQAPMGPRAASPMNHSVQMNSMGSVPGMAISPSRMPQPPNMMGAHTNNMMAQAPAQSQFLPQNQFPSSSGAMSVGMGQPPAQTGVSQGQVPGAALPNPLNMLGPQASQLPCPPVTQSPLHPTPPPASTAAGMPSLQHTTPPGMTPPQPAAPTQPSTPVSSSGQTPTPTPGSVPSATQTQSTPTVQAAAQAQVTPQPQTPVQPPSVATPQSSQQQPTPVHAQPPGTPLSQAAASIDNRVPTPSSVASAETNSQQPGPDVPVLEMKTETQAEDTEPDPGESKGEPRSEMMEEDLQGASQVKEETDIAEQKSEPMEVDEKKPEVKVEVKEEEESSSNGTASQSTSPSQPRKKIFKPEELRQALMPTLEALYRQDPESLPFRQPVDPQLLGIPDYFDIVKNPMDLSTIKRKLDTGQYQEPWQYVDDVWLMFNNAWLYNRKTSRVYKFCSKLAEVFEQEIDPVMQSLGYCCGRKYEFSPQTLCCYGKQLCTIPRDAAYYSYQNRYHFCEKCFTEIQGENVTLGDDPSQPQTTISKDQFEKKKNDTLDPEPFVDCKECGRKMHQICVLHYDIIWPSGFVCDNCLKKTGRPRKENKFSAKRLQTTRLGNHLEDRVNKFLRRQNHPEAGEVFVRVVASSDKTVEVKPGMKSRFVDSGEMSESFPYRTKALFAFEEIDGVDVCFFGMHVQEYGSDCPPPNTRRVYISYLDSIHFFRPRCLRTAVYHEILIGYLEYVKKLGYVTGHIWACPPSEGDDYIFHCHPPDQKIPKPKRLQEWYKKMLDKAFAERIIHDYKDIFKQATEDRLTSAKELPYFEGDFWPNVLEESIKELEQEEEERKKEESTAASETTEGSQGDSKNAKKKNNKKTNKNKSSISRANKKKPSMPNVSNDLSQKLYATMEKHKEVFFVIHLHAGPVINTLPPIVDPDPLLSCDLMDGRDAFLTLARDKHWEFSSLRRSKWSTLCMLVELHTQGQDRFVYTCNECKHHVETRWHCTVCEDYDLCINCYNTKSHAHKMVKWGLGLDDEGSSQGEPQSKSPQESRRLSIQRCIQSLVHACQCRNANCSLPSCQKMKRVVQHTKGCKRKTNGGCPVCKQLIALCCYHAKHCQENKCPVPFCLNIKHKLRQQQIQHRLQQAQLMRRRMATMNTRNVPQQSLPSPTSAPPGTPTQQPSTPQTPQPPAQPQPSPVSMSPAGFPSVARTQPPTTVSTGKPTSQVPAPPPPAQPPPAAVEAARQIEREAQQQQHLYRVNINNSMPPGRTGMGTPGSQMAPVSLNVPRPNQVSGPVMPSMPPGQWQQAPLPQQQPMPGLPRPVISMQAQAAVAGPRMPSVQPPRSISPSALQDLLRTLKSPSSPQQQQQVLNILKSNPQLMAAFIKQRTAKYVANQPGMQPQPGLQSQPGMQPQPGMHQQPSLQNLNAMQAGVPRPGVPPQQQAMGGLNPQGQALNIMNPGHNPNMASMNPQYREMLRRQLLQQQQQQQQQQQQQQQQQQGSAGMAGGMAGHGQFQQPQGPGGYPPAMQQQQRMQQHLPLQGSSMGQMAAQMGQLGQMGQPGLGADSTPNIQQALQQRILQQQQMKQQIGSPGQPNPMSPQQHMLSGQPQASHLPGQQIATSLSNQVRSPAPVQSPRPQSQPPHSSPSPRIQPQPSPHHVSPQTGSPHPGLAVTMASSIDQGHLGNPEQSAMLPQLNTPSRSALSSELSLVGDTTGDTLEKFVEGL

With `O=C1[C@H](Cc2ccc(O)cc2)N2C(=O)CCN(C(=O)NCc3ccccc3)[C@H]2CN1Cc1cccc2ccccc12` [ICG-001] as the compound, how does the “inhibition of β-catenin/CBP dependent transcription” value (β-catenin/CBP) read?
Its value is “specifically inhibits”.

What about the “differentiation of non-tumorigenic precursor cells, 3T3-L1 preadipocytes” value (3T3-L1 preadipocytes) of the same compound?
The value was “inducing the differentiation”.

What about the “differentiation of C2C12 myeloblasts (myoblasts)” value (C2C12 myoblasts) of the same compound?
Its value is “induces the differentiation; also recorded: induced; also recorded: inducing the differentiation”.

And the “programmed cell death in cancer cells” value (cancer cells)?
The value was “selectively inducing programmed cell death”.
